Measured values published in publication PMC7756341, “Liposomal FRET Assay Identifies Potent Drug‐Like Inhibitors of the Ceramide Transport Protein (CERT)” (Chemistry (Weinheim an Der Bergstrasse, Germany), 2020).
Where “and” joins values, the source holds several entries; their conditions need not be identical. Identical values can stand only once.

Key:
[1] = test system: HeLa cells; assay: Sphingolipid content of treated HeLa cells by quantitative mass spectrometry; format: cell-based; conditions: for Cer16 / Cer18 / Cer20 / Cer22 / Cer24 / Cer24:1 / Cer total / S1P / SM16 / SM18 / SM20 / SM22 / SM24 / SM24:1 / SM total / Sph / ratio total SM/Cer: HeLa, 42h, single replicates; for Cer16 / Cer18 / Cer20 / Cer22 / Cer24 / Cer24:1 / Cer total / S1P / SM16 / SM18 / SM20 / SM22 / SM24 / SM24:1 / SM total / Sph: 500.000 cells per sample
How it was run: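 HeLa cells were plated in six-well plates at 177000 cells per well in DMEM containing 4mM L-glutamine, 10% FBS and 1% Penicillin-Streptomycin, then exposed to inhibitor. Harvested cells were adjusted to 500.000 per sample, extracted with methanol/chloroform (2:1) containing Cer17 and d31-SM16 internal standards, and quantified for ceramides and sphingomyelins by C8 reversed-phase HPLC coupled to ESI+ triple-quadrupole MS/MS.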

[2] = test system: HeLa cells; assay: Cellular localization of BODIPY-ceramide by confocal microscopy; format: cell-based; conditions: 10 µM inhibitor, 2 h
Protocol: 5.1 Cellular Localization of BODIPY-Ceramide
HeLa cells were seeded in 8 well chamber slides (ibidi µ-Slide 8 Well) in RPMI 1640 medium supplemented with 10% (v/v) heat‐inactivated FCS, 1 mM sodium pyruvate and 2 mM L-glutamine at 37 °C and 5% (v/v) CO2 in a humidified incubator. The day after, cells were incubated with inhibitors for 2 h at a concentration of 10 µM or left untreated by replacing the medium with fresh medium supplemented with the respective inhibitors. After 2 h of incubation, BODIPY FL C5-ceramide (Thermo Fisher) was added to a final concentration of 0,25 µM and imaging was immediately done using an LSM 780 laser scanning confocal microscope (Carl Zeiss). No additional wash steps were performed. After 1 h of incubation, DNA was counterstained using Hoechst 33342. For quantification of BODIPY-Ceramide trafficking, cells were transfected with pECFP-GalT the day before inhibitor incubation for the expression of an eCFP fusion of the human galactosyltransferase (GalT; amino acids 1-60), which localizes at the Golgi apparatus. After incubation with the respective inhibitors (see above), cells were imaged at 30 min post addition of BODIPY FL C5-ceramide. Mean BODIPY intensities of regions of interest surrounding eCFP-GalT-positive Golgi stacks were measured (40 cells per biological replicate, 4 biological replicates in total) using ImageJ software (Rasband, W.S., ImageJ, U. S. National Institutes of Health, Bethesda, Maryland, USA, https://imagej.nih.gov/ij/, 1997-2018) and divided by the total BODIPY intensity detected in the field of view. Quantification (Fig 10B) is expressed as normalized intensity ratio (GA/total).
Figure S10. A Uptake of BODIPY FL C5-ceramide to HeLa cells assessed by normalized fluorescence intensity B Distribution of BODIPY FL C5-ceramide by normalized fluorescence […]
(1 picture or pasted object on this page, not shown here)
Figure S11. BODIPY-Ceramide trafficking. Confocal images showing distribution of BODIPY FL C5-ceramide (green) and Golgi apparatus costaining (eCFP-GalT; blue) in HeLa cells pretreated with 10 µM of respective inhibitors or left untreated. Figures show representative images (n = 4 biological replicates with 40 cells per biological replicate); scale bars, 10 µm.

Cc1cc(C2=NOC(c3cc(Cl)cc(Cl)c3)(C(F)(F)F)C2)ccc1C(=O)NCC(=O)NCC(F)(F)F (centres unmarked) [20D5, Fluralaner] was tested, and the “effect on total sphingomyelin” value ([1]; HeLa cells, 48 hours, serum-reduced medium) was “dose‐dependent reduction”, the Cer16 ([1]; 1 µM) was 45,48 pmol/sample and 40,19 pmol/sample and 39,73 pmol/sample and the Cer18 ([1]; 1 µM) was 6,03 pmol/sample and 4,12 pmol/sample and 3,84 pmol/sample. The Cer20 ([1]; 1 µM) was 2,67 pmol/sample and 1,37 pmol/sample and 1,12 pmol/sample, the Cer22 ([1]; 1 µM) was 11,46 pmol/sample and 9,24 pmol/sample and 9,12 pmol/sample and the Cer24 ([1]; 1 µM) was 40,67 pmol/sample and 36,50 pmol/sample and 37,27 pmol/sample. For the same compound, the “Cer24:1” value ([1]; 1 µM) was 46,05 pmol/sample and 40,74 pmol/sample and 40,44 pmol/sample, the Cer total ([1]; 1 µM) was 152,37 pmol/sample and 131,71 pmol/sample and 131,97 pmol/sample and the S1P ([1]; 1 µM) was 1,21 pmol/sample and 1,34 pmol/sample and 1,10 pmol/sample. For the same compound, the SM16 ([1]; 1 µM) was 1625,68 pmol/sample and 1717,57 pmol/sample and 1686,01 pmol/sample, the SM18 ([1]; 1 µM) was 54,98 pmol/sample and 59,04 pmol/sample and 56,68 pmol/sample and the SM20 ([1]; 1 µM) was 18,10 pmol/sample and 18,45 pmol/sample and 17,14 pmol/sample. For the same compound, the SM22 ([1]; 1 µM) was 110,98 pmol/sample and 111,56 pmol/sample and 111,04 pmol/sample, the SM24 ([1]; 1 µM) was 197,09 pmol/sample and 206,21 pmol/sample and 199,98 pmol/sample and the “SM24:1” value ([1]; 1 µM) was 621,75 pmol/sample and 662,66 pmol/sample and 645,68 pmol/sample. For the same compound, the SM total ([1]; 1 µM) was 2628,58 pmol/sample and 2775,49 pmol/sample and 2716,53 pmol/sample, the Sph ([1]; 1 µM) was 3,74 pmol/sample and 3,07 pmol/sample and 3,46 pmol/sample and the “ratio total SM/Cer” value ([1]; 1 µM) was 19,9 and 18,2 and 20,6. The Cer16 ([1]; 2.5 µM) was 40,44 pmol/sample and 43,49 pmol/sample and 36,97 pmol/sample, the Cer18 ([1]; 2.5 µM) was 4,61 pmol/sample and 4,98 pmol/sample and 3,95 pmol/sample and the Cer20 ([1]; 2.5 µM) was 1,33 pmol/sample and 1,40 pmol/sample and 1,09 pmol/sample. The Cer22 ([1]; 2.5 µM) was 9,74 pmol/sample and 10,99 pmol/sample and 8,69 pmol/sample, the Cer24 ([1]; 2.5 µM) was 35,83 pmol/sample and 40,22 pmol/sample and 34,92 pmol/sample and the “Cer24:1” value ([1]; 2.5 µM) was 37,47 pmol/sample and 43,87 pmol/sample and 37,54 pmol/sample. The Cer total ([1]; 2.5 µM) was 129,42 pmol/sample and 144,94 pmol/sample and 123,16 pmol/sample, the S1P ([1]; 2.5 µM) was 1,21 pmol/sample and 1,29 pmol/sample (2×) and the SM16 ([1]; 2.5 µM) was 1311,55 pmol/sample and 1447,18 pmol/sample and 1450,27 pmol/sample. For the same compound, the SM18 ([1]; 2.5 µM) was 48,19 pmol/sample and 50,02 pmol/sample and 51,79 pmol/sample, the SM20 ([1]; 2.5 µM) was 16,11 pmol/sample and 17,46 pmol/sample and 16,39 pmol/sample and the SM22 ([1]; 2.5 µM) was 98,76 pmol/sample and 109,23 pmol/sample and 102,97 pmol/sample. For the same compound, the SM24 ([1]; 2.5 µM) was 179,29 pmol/sample and 202,61 pmol/sample and 193,22 pmol/sample, the “SM24:1” value ([1]; 2.5 µM) was 587,13 pmol/sample and 553,18 pmol/sample and 603,33 pmol/sample and the SM total ([1]; 2.5 µM) was 2401,78 pmol/sample and 2207,08 pmol/sample and 2429,82 pmol/sample. The Sph ([1]; 2.5 µM) was 3,04 pmol/sample and 3,17 pmol/sample and 2,91 pmol/sample, the “ratio total SM/Cer” value ([1]; 2.5 µM) was 19,5 and 17,1 and 16,8 and the Cer16 ([1]; 5 µM) was 48,26 pmol/sample and 50,29 pmol/sample and 47,46 pmol/sample. For the same compound, the Cer18 ([1]; 5 µM) was 5,41 pmol/sample and 5,92 pmol/sample and 5,34 pmol/sample, the Cer20 ([1]; 5 µM) was 1,35 pmol/sample and 1,41 pmol/sample and 1,29 pmol/sample and the Cer22 ([1]; 5 µM) was 9,51 pmol/sample and 10,83 pmol/sample and 9,59 pmol/sample. For the same compound, the Cer24 ([1]; 5 µM) was 33,23 pmol/sample and 39,15 pmol/sample and 38,78 pmol/sample, the “Cer24:1” value ([1]; 5 µM) was 35,26 pmol/sample and 38,24 pmol/sample and 35,25 pmol/sample and the Cer total ([1]; 5 µM) was 133,01 pmol/sample and 145,85 pmol/sample and 137,71 pmol/sample. For the same compound, the S1P ([1]; 5 µM) was 1,32 pmol/sample and 1,22 pmol/sample and 1,19 pmol/sample, the SM16 ([1]; 5 µM) was 1128,33 pmol/sample and 1262,96 pmol/sample and 1233,63 pmol/sample and the SM18 ([1]; 5 µM) was 43,19 pmol/sample and 47,39 pmol/sample and 44,90 pmol/sample. The SM20 ([1]; 5 µM) was 13,45 pmol/sample and 15,19 pmol/sample and 13,75 pmol/sample, the SM22 ([1]; 5 µM) was 74,74 pmol/sample and 85,38 pmol/sample and 82,05 pmol/sample and the SM24 ([1]; 5 µM) was 132,70 pmol/sample and 158,23 pmol/sample and 155,99 pmol/sample. The “SM24:1” value ([1]; 5 µM) was 419,73 pmol/sample and 481,61 pmol/sample and 461,72 pmol/sample, the SM total ([1]; 5 µM) was 1812,15 pmol/sample and 2050,77 pmol/sample and 1992,04 pmol/sample and the Sph ([1]; 5 µM) was 3,25 pmol/sample and 3,29 pmol/sample and 4,27 pmol/sample. The “ratio total SM/Cer” value ([1]; 5 µM) was 13,6 and 14,1 and 14,5 and the “effect on intracellular distribution of BODIPY-Cer” value [2] was “significantly influenced”.
